Values joined by “and” are separate entries in the source; they are usually repeats but may differ in a detail not shown here. Equal entries are not always repeated. Where two headings read alike, the source gives them in different places.
How the values were obtained:
Gyrodactylus kobayashii = tested on: Gyrodactylus kobayashii; design: method as in doi:10.1016/j.aquaculture.2021.736372; conditions: exposure to 2.0 μg/mL; cited from earlier work
goldfish = tested on: goldfish; design: method as in doi:10.1016/j.aquaculture.2021.736372; conditions: cited from earlier work
EPC cells = assay: Toxicity to EPC cell line, MTT assay; type: cell-based, fish; conditions: 24 h incubation, compound at its GI50 (24 h)
Experimental: (§1) We used the Epithelioma Papulosum Cyprini (EPC) cell line, acquired from the American Type Culture Collection (ATCC®, Manassas, VA, USA), as a control for toxicity. The cell line, kindly provided by Doctors Pereira-Dopazo and Bandin from the Aquaculture Institute of the University of Santiago de Coompostela, was cultured in MEM medium equilibrated with Hanks’ balanced salts (Gibco, Thermo Fischer Sci., Waltham, MA, USA) supplemented with 10% foetal bovine serum and 10 mL/L of 100X antibiotic–antimycotic solution. Cells were maintained subconfluent at 25 °C in a cell culture incubator and used when the confluence reached 75%.
(§2) Cell viability was then estimated by the MTT (3-(4,5-dimethylthiazol-2-yl)-2,5-diphenyl tetrazolium bromide) assay, as previously described, with minor modifications. Briefly, 100 μL of the MTT solution (1 mg/mL in phosphate-buffered saline; pH 7.2) was added to each well, and plates were incubated at 25 °C for 4 h. The yellow tetrazolium salt of MTT is reduced by mitochondrial dehydrogenases in metabolically active cells to form insoluble purple formazan crystals, which are then dissolved by the addition of DMSO (50 μL/well). Prior to the addition of MTT or DMSO, the plates were washed, and the supernatant was removed. The absorbance was measured at 540 nm in a microplate reader (Multiskan™, Thermo Fischer Sci., Waltham, MA, USA), and the relative cell viability was expressed as the mean percentage of viable cells relative to untreated cells.
(§3) In the viability assay, the possible effect of DMSO was evaluated for each compound by the inclusion of three replicate wells with MEM medium and the same DMSO concentration as in the medium. […] Control cells with only MEM were also included in the assay.

[1] = Toxicity to EPC cell line, MTT assay; type: cell-based, fish; conditions: fish, compound at its GI50 (24 h), MTT, read-out: EPC Cell Viability (%) Mean ± SD; for viability at 3 h: 3 h incubation; for viability at 24 h: 24 h incubation
Experimental: as §1, §2, §3

[2] = tested on: Philasterides dicentrarchi; assay: microbe, parasite or virus in culture; conditions: for Ciliate Mortality 3 h (%) / parasites killed after 24 h: 100 μM, culture medium; for Ciliate Mortality 3 h (%): mean ± SD of three replicates; for mortality at 100 µM / GI50 / inhibition at 100 µM: Philasterides dicentrarchi; for Ciliate Mortality 3 h (%) / mortality at 100 µM: 3 h; for mortality at 100 µM: read-out: Ciliate Mortality 3 h (%), 100 μM, 3 h, culture medium, mean ± SD of three replicates; for inhibition at 100 µM: read-out: Growth Inhibition 24 h (%), 100 μM, 24 h, culture medium, mean ± SD of three replicates; for effect on the ciliate (lysis, movement): microscopy observation
Experimental: P. dicentrarchi (isolate I1), obtained from an outbreak of scuticociliatosis in cultured turbot in Galicia, was routinely cultured at 18 °C in complete sterile L15 medium (Leibovitz, PAA Laboratories GmbH, 1% salinity, pH 7.2) containing 90 mg/L each of adenosine, cytidine, and uridine, 150 mg/L of guanosine, 5 g/L of glucose, 400 mg/L of L-α-phosphatidylcholine, 200 mg/L of Tween 80, 10% of heat-inactivated foetal bovine serum (FBS), and 10 mL/L of 100X antibiotic–antimycotic solution (100 units/mL of penicillin G, 0.1 mg/mL of streptomycin sulphate and 0.25 mg/mL of amphotericin B), as previously described. Alternatively, ciliates were cultured in seawater with autoclaved marine bacteria (10^6 cells/mL) supplied as food at 21 °C. The ciliates were cultured under normoxic conditions in tissue culture flasks fitted with vented caps that enabled aeration of the culture medium.
We tested the toxicity to P. dicentrarchi of 26 compounds of natural origin (Table 1). The compounds were prepared in 10 mM stock solutions in dimethyl sulfoxide (DMSO) and maintained at −20 °C until use. In addition, the Pseudomonas H6 lipopeptide surfactant (PS) was prepared, lyophilised and stored at −20 °C [37]. A stock solution of PS was prepared in distilled water (1000 ppm) and diluted in culture medium or seawater at the final concentrations used in each assay and sterile filtered (through 0.2 µm filters) before being added to the parasites or EPC cells.
The anticiliate activity was assayed as previously described, with minor modifications. Ciliates were concentrated by centrifugation at 650× g for 5 min and resuspended in a medium at the concentration required for the assays. All experiments were carried out in triplicate. Wells containing ciliates in a culture medium or seawater without the test compounds were assayed as negative controls. To rule out any possible effects of the solvent (DMSO), triplicate wells with a culture medium or seawater containing the highest concentration of DMSO used (up to 1%) were also included. […] In these assays, the compounds were diluted in 1 mL of culture medium or seawater and added to the wells of 24-well sterile culture plates containing 2.5 × 10^4 ciliates per well, at final concentrations of […], 6.25, 12.5, 25, 50, and 100 µM in culture medium. The effects of the compounds on the motility and morphology of the ciliates were monitored periodically (at 30 min, 1, 2, 3, 24, and 48 h) under an inverted optical microscope. Ciliates were considered dead when they lysed and were not motile. The results obtained are expressed as percentage mortality for each experimental group. To estimate the total number of ciliates per well, the ciliates were inactivated by adding 0.25% glutaraldehyde and counted in a haemocytometer under an optical microscope. The lowest dose of the selected compounds resulting in 100% ciliate mortality (LC100) was assessed at 1, 2, and 3 h after incubation of parasites with sample dilutions (from 0 to 100 μg/mL, in 10 μg intervals). The concentration that inhibited 50% of ciliate growth (GI50), in comparison with the control group, was calculated with Excel software (Microsoft Office; Microsoft, Redmond, WA, USA) by plotting the dose-response data (log dose-per cent of growth inhibition) and applying linear regression (y = mx + b) for data fitting. The values were then calculated from the equation log GI50 = (50 − b)/m, where m is the slope y1 − y2/x1 − x2, and b is the intercept of the line.

Saprolegnia delica = tested on: Saprolegnia delica; design: method as in PMID 32154278; conditions: 0.1 mM; cited from earlier work
[3] = tested on: Philasterides dicentrarchi; assay: Anticiliate activity, ciliates maintained in seawater (LC100, LC50); type: cell-based; conditions: 3 h incubation
Experimental: All experiments were carried out in triplicate.

Amyloodinium ocellatum = tested on: Amyloodinium ocellatum; design: method as in PMID 32154278; conditions: 24 h incubation period; cited from earlier work
rainbow trout = tested on: rainbow trout; design: method as in PMID 17979099; conditions: 100 to 2000 ppm in the diet for four weeks; cited from earlier work
S. parasitica = tested on: S. parasitica; design: method as in PMID 32154278; conditions: 0.1 mM; cited from earlier work
[4] = 24 h, read-out: GI50 24 h (compound concentration that inhibited 50% of parasite growth)
[5] = 48 h, read-out: GI50 48 h (compound concentration that inhibited 50% of parasite growth)

| Compound | time to complete death of Gyrodactylus kobayashii (Gyrodactylus kobayashii) | concentration toxic to goldfish (goldfish) | EPC cells killed (EPC cells) | viability at 3 h [1] | viability at 24 h [1] | Ciliate Mortality 3 h (%) [2] | parasites killed after 24 h ([2]; 24 h) | mortality at 100 µM [2] | GI50 [2, 4] | GI50 ([2]; 24 h, read-out: GI50 24 h expressed in μg/mL) | inhibition at 100 µM ([2]; 24 h) | GI50 [2, 5] | effect on the ciliate (lysis, movement) [2] | growth of Saprolegnia delica (Saprolegnia delica) | LC100 (lowest concentration resulting in 100% ciliate mortality) [3] | doses inhibiting dinospore motility (Amyloodinium ocellatum) | toxic effects of administration in the diet (rainbow trout) | radial growth of S. parasitica (S. parasitica) |
| --- | --- | --- | --- | --- | --- | --- | --- | --- | --- | --- | --- | --- | --- | --- | --- | --- | --- | --- |
| CC1=CC(=O)c2c(O)cccc2C1=O [Plumbagin] | ≤ 45 min | higher than 0.5 mg/L | 26% | 78.7 ± 1.4% | 74.2 ± 3.94% | 100% | killed all the parasites | > 90% | 12.9 ± 1.16 µM | 2.42 µg/mL | 100% | 9.65 ± 0.67 µM | inhibited the ciliate movement, but it did not cause cell lysis for several hours | inhibiting | 30 µM |  |  |  |
| C[C@H]1CC[C@]2(NC1)O[C@H]1C[C@H]3[C@@H]4CC[C@H]5C[C@@H](O[C@@H]6O[C@H](CO)[C@H](O[C@@H]7O[C@H](CO)[C@@H](O)[C@H](O[C@@H]8OC[C@@H](O)[C@H](O)[C@H]8O)[C@H]7O[C@@H]7O[C@H](CO)[C@@H](O)[C@H](O)[C@H]7O)[C@H](O)[C@H]6O)CC[C@]5(C)[C@H]4CC[C@]3(C)[C@H]1[C@@H]2C [Tomatine] |  |  | 43% | 63 ± 6.82% | 57.6 ± 7.7% | 93.33 ± 2.31% | killed all the parasites | > 90% | 10.1 ± 1.27 µM |  | 100% | 8.51 ± 0.2 µM | very quick lysis of the ciliate | inhibited | 10 µM | 6.25–50 μg/mL and 0.006–0.05 mM | did not have toxic effects | inhibited |

Source: publication PMC8880129, “Plant- and Bacteria-Derived Compounds with Anti-Philasterides dicentrarchi Activity” (Pathogens, 2022)
